Source: US20260022143A1, “Cyclic Peptide Inhibitors of IL-23” (JANSSEN PHARMACEUTICA NV, priority 2022, published 2026)
Starred links: 1 amine or outer side, 2 acyl side, 3 side chain; linkers in the order of their positions; H or OH if unused. Positions of bridges follow the written chain, without caps; N, C: chain ends. Non-standard residues stand in square brackets, D forms with d. Residues, ends and D or L forms follow the SMILES beside them. *: point of attachment. Me3N+(CH2)2O(CH2)2O(CH2)2CO = C[N+](C)(C)CCOCCOCCC(=O)*; CH2CH2OCH2CH2OCH2CH2NMe3+ = C[N+](C)(C)CCOCCOCC*; Trp(7-Me) = Cc1cccc2c(C[C@H](N)C(=O)O)c[nH]c12; Decanoyl(3,6,9-trioxa) = COCCOCCOCC(=O)*; 2Nal = N[C@@H](Cc1ccc2ccccc2c1)C(=O)O; X24 = C[N+](C)(CCN[*:1])CC(=O)[*:2]; 3Pal = N[C@@H](Cc1cccnc1)C(=O)O; Lys(Me) = CNCCCC[C@H](N)C(=O)O; Pen = CC(C)(S)[C@H](N)C(=O)O; Thp = NC1(C(=O)O)CCOCC1; X12 = C[N+](C)(C)CCC*; Sar = CNCC(=O)O

Columns and labels:
[1] = Exposed Polar Surface Area (EPSA); type: physicochemical; settings: SFC on Chirex 3014 column; sample 1 mM DMSO stock; read-out: EPSA
Outline: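 Polarity descriptor in Å² derived from retention time using 8 calibration standards re-run every 20 compounds. Duplicate injections of 1 mM DMSO stock; linear 5–60% modifier gradient (20 mM ammonium formate in MeOH) with CO2 at 4 mL/min, 35 °C, on a Chirex 3014 column.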

[2] = molecular target: T1, IL-23R (Homo sapiens, UniProt Q5VWK5); assay: IL23R Reporter Assay; type: cell-based; settings: HEK293 cells containing IL-23R, IL-12RP1 and STAT-inducible firefly luciferase reporter; 10 ng/mL IL-23 (EC90); 5 h at 37° C.; read-out: IL23R Reporter Assay
T1 construct: host or cells: HEK293
T1 sequence (Q5VWK5 24-629): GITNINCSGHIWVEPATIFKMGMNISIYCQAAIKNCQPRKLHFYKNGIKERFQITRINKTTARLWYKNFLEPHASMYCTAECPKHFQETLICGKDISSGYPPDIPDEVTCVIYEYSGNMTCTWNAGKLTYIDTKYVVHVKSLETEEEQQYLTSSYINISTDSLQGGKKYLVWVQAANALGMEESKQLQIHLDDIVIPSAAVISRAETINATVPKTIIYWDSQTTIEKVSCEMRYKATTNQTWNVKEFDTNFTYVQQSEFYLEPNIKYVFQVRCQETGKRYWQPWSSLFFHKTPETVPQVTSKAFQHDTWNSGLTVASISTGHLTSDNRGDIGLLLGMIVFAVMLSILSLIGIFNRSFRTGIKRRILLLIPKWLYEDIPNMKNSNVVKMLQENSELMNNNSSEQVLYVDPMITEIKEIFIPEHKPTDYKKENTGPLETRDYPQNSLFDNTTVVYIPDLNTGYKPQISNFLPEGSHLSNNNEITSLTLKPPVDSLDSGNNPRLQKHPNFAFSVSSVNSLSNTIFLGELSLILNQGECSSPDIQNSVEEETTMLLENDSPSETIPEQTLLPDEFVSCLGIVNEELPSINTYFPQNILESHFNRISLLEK

Row | SMILES | EPSA [1] [A^2] | IC50 [2] [nM]
1 | COCCOCCOCC(=O)NCC[N+](C)(C)CC(=O)N[C@@H]1C(=O)N[C@@H](CC(=O)N(C)C)C(=O)N[C@@H]([C@@H](C)O)C(=O)N[C@@H](Cc2c[nH]c3c(C)cccc23)C(=O)N[C@@H](CCCCN(C)C(C)=O)C(=O)N[C@H](C(=O)N[C@@H](Cc2ccc(OCCOCCOCC[N+](C)(C)C)cc2)C(=O)N[C@@H](Cc2ccc3ccccc3c2)C(=O)NC2(C(=O)N[C@@H](CCCCN(C)C(C)=O)C(=O)N[C@@H](CC(N)=O)C(=O)N[C@@H](Cc3cccnc3)C(=O)N(C)CC(=O)N(C)C)CCOCC2)C(C)(C)SSC1(C)C [compound 225, mPEG3CO-SP6-Pen(3)-N(N(Me)2)-T-7MeW-K(NMeAc)-Pen(3)-APEG3F-2Nal-THP-K(NMeAc)-N-3Pya-Sar-CON(Me)2] ({Decanoyl(3,6,9-trioxa)}-[X24][Pen]D(NMe2)T[Trp(7-Me)][Lys(Me)](Ac)[Pen]Y(CH2CH2OCH2CH2OCH2CH2NMe3+)[2Nal][Thp][Lys(Me)](Ac)N[3Pal][Sar]-NMe2; disulfide 2-7) | 136 | 4.1
2 | CC(=O)N(C)CCCC[C@@H]1NC(=O)[C@H](Cc2c[nH]c3c(C)cccc23)NC(=O)[C@H]([C@@H](C)O)NC(=O)[C@H](CC(=O)N(C)C)NC(=O)[C@@H](NC(=O)CCOCCOCC[N+](C)(C)C)C(C)(C)SSC(C)(C)[C@@H](C(=O)N[C@@H](Cc2ccc(OCCC[N+](C)(C)C)cc2)C(=O)N[C@@H](Cc2ccc3ccccc3c2)C(=O)NC2(C(=O)N[C@@H](CCCCN(C)C(C)=O)C(=O)N[C@@H](CC(N)=O)C(=O)N[C@@H](Cc3cccnc3)C(=O)N(C)CC(=O)N(C)C)CCOCC2)NC1=O [compound 229, cPEG3aCO-Pen(3)-N(N(Me)2)-T-7MeW-K(NMeAc)-Pen(3)-TMA3F-2Nal-THP-K(NMeAc)-N-3Pya-Sar-CON(Me)2] ({Me3N+(CH2)2O(CH2)2O(CH2)2CO}-[Pen]D(NMe2)T[Trp(7-Me)][Lys(Me)](Ac)[Pen]Y(X12)[2Nal][Thp][Lys(Me)](Ac)N[3Pal][Sar]-NMe2; disulfide 1-6) | 145 | 19
3 | CC(=O)N[C@H](COCCOCC[N+](C)(C)C)C(=O)N[C@@H]1C(=O)N[C@@H](CC(=O)N(C)C)C(=O)N[C@@H]([C@@H](C)O)C(=O)N[C@@H](Cc2c[nH]c3c(C)cccc23)C(=O)N[C@@H](CCCCN(C)C(C)=O)C(=O)N[C@H](C(=O)N[C@@H](Cc2ccc(OCCOCCOCC[N+](C)(C)C)cc2)C(=O)N[C@@H](Cc2ccc3ccccc3c2)C(=O)NC2(C(=O)N[C@@H](CCCCN(C)C(C)=O)C(=O)N[C@@H](CC(N)=O)C(=O)N[C@@H](Cc3cccnc3)C(=O)N(C)CC(=O)N(C)C)CCOCC2)C(C)(C)SSC1(C)C [compound 232, MeCO-APEG2ser-Pen(3)-N(N(Me)2)-T-7MeW-K(NMeAc)-Pen(3)-APEG3F-2Nal-THP-K(NMeAc)-N-3Pya-Sar-CON(Me)2] | 140 | 3.4
4 | CC(=O)NCCCC[C@H](NC(=O)C1(NC(=O)[C@H](Cc2ccc3ccccc3c2)NC(=O)[C@H](Cc2ccc(OCCOCCOCC[N+](C)(C)C)cc2)NC(=O)[C@H]2NC(=O)[C@H](CCCCN(C)C(C)=O)NC(=O)[C@H](Cc3c[nH]c4c(C)cccc34)NC(=O)[C@H]([C@@H](C)O)NC(=O)[C@H](CC(=O)N(C)C)NC(=O)[C@@H](NC(=O)CCOCCOCC[N+](C)(C)C)C(C)(C)SSC2(C)C)CCOCC1)C(=O)N[C@@H](CC(N)=O)C(=O)N[C@@H](Cc1cccnc1)C(=O)N(C)CC(=O)N(C)C [compound 233, cPEG3aCO-Pen(3)-N(N(Me)2)-T-7MeW-K(NMeAc)-Pen(3)-APEG3F-2Nal-THP-K(Ac)-N-3Pya-Sar-CON(Me)2] ({Me3N+(CH2)2O(CH2)2O(CH2)2CO}-[Pen]D(NMe2)T[Trp(7-Me)][Lys(Me)](Ac)[Pen]Y(CH2CH2OCH2CH2OCH2CH2NMe3+)[2Nal][Thp]K(Ac)N[3Pal][Sar]-NMe2; disulfide 1-6) | 141 | 3
